According to US10073082B2, “Proteasome inhibition assay and methods of use” (UNIVERSITY HEALTH NETWORK, priority 2013, dated 2018):
Peptide text beside a SMILES is read from it. * marks the point of attachment. Cbz = O=C(OCc1ccccc1)*

Tests used:
Type in all cases: cell-based, human
[1] = tested on: P-ERK (P-Thr202/P-Tyr204) in peripheral blood monocytes; assay: ERK phosphorylation in LPS activated monocytes from pretreated whole blood; conditions: LPS activated monocytes
Description: (§1) Whole blood samples from normal human donors were collected. 100 μL aliquots of the whole blood were inserted into the bottom of 12×75 mm tubes. In order to reduce the potential for contamination of the sample with unfixed cells, blood was removed from the side of the tubes with a cotton swab. 1-2 μL of a proteasome effector was added to a first portion of the tubes and these tubes were incubated for 2 hours at 37° C. in a water bath. In this example, the proteasome effector was Bortezomib or MG-132, both proteasome inhibitors. Following pretreatment with the proteasome effector, 2 μL of […] stock solution (100 ng) of an IκB degradation agonist was added to the tubes and the tubes were incubated from 1 minute to 60 minutes at 37° C. in a water bath. In this example, the agonist was lipopolysaccharide (LPS). A second portion of the tubes were treated with the IκB degradation agonist and no proteasome effector. 2 μL of an IκB degradation agonist was added to these tubes and the tubes were incubated from 1 minute to 60 minutes as described above. For control tubes, 2 μL of phosphate buffered saline (PBS) was added to the tubes and the tubes were incubated as described above.
Following incubation, the cells were fixed and permeabilized with a PerFix-P® kit (Beckman Coulter, Inc., Brea. Calif.) according to the manufacturer's instructions. The fixed and permeabilized cells were then washed with 2 mL of Wash Buffer (PBS (w/o Ca++/Mg++) with 2% fetal bovine serum (FBS), sterile filtered (0.22 μm filter)) in the tubes and centrifuged at 500×g for 4 minutes. The cell pellet was resuspended in 2 mL of cold (4° C.) Wash Buffer, centrifuged at 500×g for 4 minutes, and the supernatant was aspirated.
Following the above wash steps, the fixed and permeabilized cells were resuspended in 100 μL of cold Wash Buffer comprising antibodies to specific intracellular antigens (e.g., signaling targets including P-ERK, P-Akt, P-p38, P-SAPK, P-S6, and antibodies to IκB). The antibodies were labeled with different fluorochromes (e.g. fluorophores) to facilitate their-individual measurement of the intracellular antigens. […] For example, anti-CD14 antibodies were included to specifically label monocytes, anti-CD3 antibodies or anti-CD19 antibodies were included to specifically label T or B-cells respectively, and/or anti-CD38/CD138 antibodies were included to specifically label plasma cells. The cells were incubated with the antibodies for 30 minutes at room temperature and then the cells were washed in 2 mL of cold Wash Buffer and centrifuged as described above. The supernatant was aspirated and the cell pellet was resuspended in 350 μL of Resuspension Buffer (PerFix-P® kit) and analyzed on a flow cytometer (GALLIOS™) using a protocol with defined population gates and series of dual parameter histograms. A CD45-KO vs. SS dual parameter histogram was collected and a gate around the leukocyte population based on the CD45+ fluorescence and SS characteristics was drawn to exclude debris (CD45 negative events). A minimum of 2,500 CD14+ events were collected. […] The collected flow cytometric data was analyzed using KALUZA™ software.
(§2) Phosphorylation of signaling pathways activated by LPS, including ERK, Akt (activated by PI3 Kinase), and the ribosomal S6 protein (a marker of protein synthesis) were also monitored together with the degradation of IκB. […] The degradation of IκB in cells pretreated with MG-132 or GDC-0941 was monitored by flow cytometry as described in Example 1. […]

[2] = tested on: P-Akt (P-Ser473) in peripheral blood monocytes; assay: Akt phosphorylation in LPS activated monocytes from pretreated whole blood
Description: (§3) Whole blood samples from normal human donors were collected. 100 μL aliquots of the whole blood were inserted into the bottom of 12×75 mm tubes. In order to reduce the potential for contamination of the sample with unfixed cells, blood was removed from the side of the tubes with a cotton swab. 1-2 μL of a proteasome effector was added to a first portion of the tubes and these tubes were incubated for 2 hours at 37° C. in a water bath. In this example, the proteasome effector was Bortezomib or MG-132, both proteasome inhibitors. […]
(§4) Following the above wash steps, the fixed and permeabilized cells were resuspended in 100 μL of cold Wash Buffer comprising antibodies to specific intracellular antigens (e.g., signaling targets including P-ERK, P-Akt, P-p38, P-SAPK, P-S6, and antibodies to IκB). […] The supernatant was aspirated and the cell pellet was resuspended in 350 μL of Resuspension Buffer (PerFix-P® kit) and analyzed on a flow cytometer (GALLIOS™) using a protocol with defined population gates and series of dual parameter histograms. A CD45-KO vs. SS dual parameter histogram was collected and a gate around the leukocyte population based on the CD45+ fluorescence and SS characteristics was drawn to exclude debris (CD45 negative events). […] The collected flow cytometric data was analyzed using KALUZA™ software. […]

IκB in granulocytes = assay: Flow cytometry assay, whole blood pretreated with effector: IκB levels in granulocytes after LPS; conditions: whole blood pretreated with inhibitor, then LPS; 60 minutes time period
Description: (§5) The assay generally comprises treating whole blood with an IκB degradation agonist and/or proteasome effector, fixing the blood cells, permeabilizing the fixed bloods cells, treating the fixed and permeabilized cells with an alcohol treatment to unmask intracellular phosphor-epitopes, and then staining the treated cells with antibodies for flow cytometry analysis.
(§6) Whole blood samples from normal human donors were collected. 100 μL aliquots of the whole blood were inserted into the bottom of 12×75 mm tubes. In order to reduce the potential for contamination of the sample with unfixed cells, blood was removed from the side of the tubes with a cotton swab. […]
(§7) Following the above wash steps, the fixed and permeabilized cells were resuspended in 100 μL of cold Wash Buffer comprising antibodies to specific intracellular antigens (e.g., signaling targets including P-ERK, P-Akt, P-p38, P-SAPK, P-S6, and antibodies to IκB). […] The supernatant was aspirated and the cell pellet was resuspended in 350 μL of Resuspension Buffer (PerFix-P® kit) and analyzed on a flow cytometer (GALLIOS™) using a protocol with defined population gates and series of dual parameter histograms. A CD45-KO vs. SS dual parameter histogram was collected and a gate around the leukocyte population based on the CD45+ fluorescence and SS characteristics was drawn to exclude debris (CD45 negative events). […]

[3] = tested on: IκB in peripheral blood monocytes; assay: Flow cytometry assay, whole blood pretreated with effector: LPS induced degradation of IκB in monocytes; conditions: whole blood pretreated with compound, then LPS
Description: as §1, with “2 μL of an IκB degradation agonist was added to these tubes and the tubes were incubated from 1 minute to 60 minutes as described above. For control tubes, 2 μL of phosphate buffered saline (PBS) was added to the tubes and the tubes were incubated as described above.” left out
Following the above wash steps, the fixed and permeabilized cells were resuspended in 100 μL of cold Wash Buffer comprising antibodies to specific intracellular antigens (e.g., signaling targets including P-ERK, P-Akt, P-p38, P-SAPK, P-S6, and antibodies to IκB). […] The supernatant was aspirated and the cell pellet was resuspended in 350 μL of Resuspension Buffer (PerFix-P® kit) and analyzed on a flow cytometer (GALLIOS™) using a protocol with defined population gates and series of dual parameter histograms. A CD45-KO vs. SS dual parameter histogram was collected and a gate around the leukocyte population based on the CD45+ fluorescence and SS characteristics was drawn to exclude debris (CD45 negative events). […] The collected flow cytometric data was analyzed using KALUZA™ software.
as §2

[4] = tested on: P-S6 (P-Ser235/P-Ser236) in peripheral blood monocytes; assay: S6 phosphorylation in LPS activated monocytes from pretreated whole blood
Description: as §3, §4

[5] = tested on: IκB in peripheral blood lymphocytes; assay: Flow cytometry assay, whole blood pretreated with effector: LPS induced degradation of IκB in lymphocytes; conditions: whole blood pretreated with inhibitor, then LPS
Description: as §5, §6, §7

SMILES: CC(C)C[C@@H](C=O)NC(=O)[C@H](CC(C)C)NC(=O)[C@H](CC(C)C)NC(=O)OCc1ccccc1 [MG-132] (Cbz-Leu-Leu-Leu-aldehyde)
- "early" (first) ERK phosphorylation peak ([1]; 2-4 minutes): not the first
- "late" (second) ERK activation peak ([1]; about 10 minutes): inhibited
- Akt activation [2]: no effect
- degradation of IκB in granulocytes (IκB in granulocytes): No significant degradation
- effect on LPS induced degradation of IκB in monocytes [3]: inhibited degradation of IκB
- MFI of the S6 phosphorylation response, lower than in the sample treated with only LPS [4]: approximately 50%
- LPS induced degradation of IκB in lymphocytes [5]: No significant degradation
